In this data set the test system is CCRIS mutagenicity, Ames/micronucleus/aberration tests. Nature of the data set: CCRIS mutagenicity studies. Particulars: Test System: AMES SALMONELLA TYPHIMURIUM
Where [1] appears, read: Strain/Indicator: TA98, Metabolic Activation: HAMSTER, LIVER, S-9, AROCLOR 1254 (10%), Method: PREINCUBATION
Setting [2] is: Strain/Indicator: TA98, Metabolic Activation: NONE, Method: PREINCUBATION
The mark [3] stands for this setting: Strain/Indicator: TA98, Metabolic Activation: RAT, LIVER, S-9, AROCLOR 1254 (10%), Method: PREINCUBATION
Where [4] appears, read: Strain/Indicator: TA100, Metabolic Activation: NONE, Method: PREINCUBATION
[5] abbreviates: Strain/Indicator: TA1535, Metabolic Activation: HAMSTER, LIVER, S-9, AROCLOR 1254 (10%), Method: PREINCUBATION
Where [6] appears, read: Strain/Indicator: TA1535, Metabolic Activation: NONE, Method: PREINCUBATION
Setting [7] is: Strain/Indicator: TA1535, Metabolic Activation: RAT, LIVER, S-9, AROCLOR 1254 (10%), Method: PREINCUBATION
[8] abbreviates: Strain/Indicator: TA1537, Metabolic Activation: HAMSTER, LIVER, S-9, AROCLOR 1254 (10%), Method: PREINCUBATION
Where [9] appears, read: Strain/Indicator: TA1537, Metabolic Activation: NONE, Method: PREINCUBATION
[10] abbreviates: Strain/Indicator: TA1537, Metabolic Activation: RAT, LIVER, S-9, AROCLOR 1254 (10%), Method: PREINCUBATION

Active and inactive are the calls of the source. How the calls were made is not given here.

On to `CNC[C@H](O)c1ccc(O)c(O)c1`, for which the mutagenic call is, setting by setting: under setting [1], “inactive; negative”; under setting [2], “inactive; negative”; under setting [3], “inactive; negative”; (Strain/Indicator: TA100, Metabolic Activation: HAMSTER, LIVER, S-9, AROCLOR 1254 (10%), Method: PREINCUBATION) “inactive; negative”; under setting [4], “inactive; negative”; (Strain/Indicator: TA100, Metabolic Activation: RAT, LIVER, S-9, AROCLOR 1254 (10%), Method: PREINCUBATION) “inactive; negative”. Also, the mutagenic call is “inactive; negative” under setting [5]; “inactive; negative” under setting [6]; “inactive; negative” under setting [7]; “inactive; negative” under setting [8]; “inactive; negative” under setting [9]; “inactive; negative” under setting [10].
As to `N#Cc1cc([N+](=O)[O-])ccc1N`, the mutagenic call is, setting by setting: under setting [2], “active; positive”; (Strain/Indicator: TA98, Metabolic Activation: RAT, LIVER, S-9, PHENOBARBITAL AND BETA-NAPHTHOFLAVONE, Method: PREINCUBATION) “active; positive”; under setting [4], “active; positive”; (Strain/Indicator: TA100, Metabolic Activation: RAT, LIVER, S-9, PHENOBARBITAL AND BETA-NAPHTHOFLAVONE, Method: PREINCUBATION) “active; positive”.
For `O=C1CCc2c1ccc1c2ccc2ccccc21`, the mutagenic call (Strain/Indicator: TA100, Metabolic Activation: RAT, LIVER, MICROSOMES, AROCLOR 1254, Method: STANDARD PLATE) is “active; positive”; the mutagenic call (Strain/Indicator: TA100, Metabolic Activation: RAT, LIVER, MICROSOMES, BENZO[A]PYRENE, Method: STANDARD PLATE) was “inactive; negative”; the mutagenic call (Strain/Indicator: TA100, Metabolic Activation: RAT, LIVER, MICROSOMES, CLOFIBRATE, Method: STANDARD PLATE) was “inactive; negative”; the mutagenic call (Strain/Indicator: TA100, Metabolic Activation: RAT, LIVER, MICROSOMES, DEXAMETHASONE, Method: STANDARD PLATE) was “inactive; negative”; the mutagenic call (Strain/Indicator: TA100, Metabolic Activation: RAT, LIVER, MICROSOMES, ISONIAZID, Method: STANDARD PLATE) was “inactive; negative”; the mutagenic call (Strain/Indicator: TA100, Metabolic Activation: RAT, LIVER, MICROSOMES, PHENOBARBITONE, Method: STANDARD PLATE) is “inactive; negative”.
`Clc1nncc2ncccc12`: the mutagenic call by setting is: under setting [2], “inactive; negative”; (Strain/Indicator: TA98, Metabolic Activation: RAT, LIVER, S-9, PCB, Method: PREINCUBATION) “inactive; negative”; under setting [4], “inactive; negative”; (Strain/Indicator: TA100, Metabolic Activation: RAT, LIVER, S-9, PCB, Method: PREINCUBATION) “inactive; negative”.
On to `Oc1cc2ccccc2c2ccccc12`, for which the mutagenic call (Strain/Indicator: TA98, Metabolic Activation: RAT, LIVER, S-9, AROCLOR 1254, Method: STANDARD PLATE) was “inactive; negative” and the mutagenic call (Strain/Indicator: TA1535, Metabolic Activation: RAT, LIVER, S-9, AROCLOR 1254, Method: STANDARD PLATE) is “active; positive”.
`COc1c2ccoc2cc2oc(=O)ccc12`: the mutagenic call is “inactive; negative” (Strain/Indicator: TA98, Metabolic Activation: NONE, Method: STANDARD PLATE) and “inactive; negative” (Strain/Indicator: TA98, Metabolic Activation: RAT, LIVER, S-9, PHENOBARBITAL, Method: STANDARD PLATE).
On to `O=C1N(CO)C(O)C(O)N1CO` (configuration not stated), for which the mutagenic call runs as follows: (Strain/Indicator: TA98, Metabolic Activation: HAMSTER, LIVER, AROCLOR 1254 (10%), Method: PREINCUBATION) “inactive; negative”; under setting [1], “inactive; negative”; under setting [3], “inactive; negative”; under setting [4], “inactive; negative”; under setting [5], “inactive; negative”; under setting [6], “inactive; negative”. Further, the mutagenic call was “inactive; negative” under setting [7], “inactive; negative” under setting [8], “inactive; negative” under setting [9] and “inactive; negative” under setting [10].
Regarding `Nc1cccc2c1ccc1ccccc12`, the mutagenic call (Strain/Indicator: TA98, Metabolic Activation: RAT, LIVER, S-9, AROCLOR 1254 (2 OR 4%), Method: STANDARD PLATE) is “active; positive”; the mutagenic call (Strain/Indicator: TA100, Metabolic Activation: RAT, LIVER, S-9, AROCLOR 1254 (2%), Method: STANDARD PLATE) is “active; positive”; the mutagenic call (Strain/Indicator: TA1535, Metabolic Activation: RAT, LIVER, S-9, AROCLOR 1254 (2%), Method: STANDARD PLATE) was “inactive; negative”; the mutagenic call (Strain/Indicator: TA1537, Metabolic Activation: RAT, LIVER, S-9, AROCLOR 1254 (2%), Method: STANDARD PLATE) is “active; positive”.
Consider `O=[N+]([O-])c1cc(-c2ccc(O)c([N+](=O)[O-])c2)ccc1O`, for which the mutagenic call under setting [2] was “inactive; negative”.
For the compound `NC(CNCCCC[C@H](N)C(=O)O)C(=O)O` (some centres not stated), the mutagenic call reads like this: (Strain/Indicator: TA97, Metabolic Activation: NONE, Method: PREINCUBATION) “inactive; negative”; (Strain/Indicator: TA97, Metabolic Activation: RAT, KIDNEY, S-9, AROCLOR 1254, Method: PREINCUBATION) “inactive; negative”; (Strain/Indicator: TA97, Metabolic Activation: RAT, LIVER, S-9, AROCLOR 1254, Method: PREINCUBATION) “inactive; negative”; under setting [2], “inactive; negative”; (Strain/Indicator: TA98, Metabolic Activation: RAT, KIDNEY, S-9, AROCLOR 1254, Method: PREINCUBATION) “inactive; negative”; (Strain/Indicator: TA98, Metabolic Activation: RAT, LIVER, S-9, AROCLOR 1254, Method: PREINCUBATION) “inactive; negative”. The mutagenic call reads like this: under setting [4], “inactive; negative”; (Strain/Indicator: TA100, Metabolic Activation: RAT, KIDNEY, S-9, AROCLOR 1254, Method: PREINCUBATION) “inactive; negative”; (Strain/Indicator: TA100, Metabolic Activation: RAT, LIVER, S-9, AROCLOR 1254, Method: PREINCUBATION) “inactive; negative”; (Strain/Indicator: TA102, Metabolic Activation: NONE, Method: PREINCUBATION) “inactive; negative”; (Strain/Indicator: TA102, Metabolic Activation: RAT, KIDNEY, S-9, AROCLOR 1254, Method: PREINCUBATION) “inactive; negative”; (Strain/Indicator: TA102, Metabolic Activation: RAT, LIVER, S-9, AROCLOR 1254, Method: PREINCUBATION) “inactive; negative”.

(Values after PubChem BioAssay AID1259407 (Chemical Carcinogenesis Research Information System (CCRIS), 2018).)
